Results: patent publication US20220143006A1, “METHODS OF TREATING CANCER WITH FARNESYLTRANSFERASE INHIBITORS” (Kura Oncology, Inc., priority 2019, published 2022)
Entries after “also recorded” stand apart in the source; their conditions may differ.

Assays:
[1] = test system: tumors in nude mice; conditions: cited from earlier work
[2] = test system: relapsed or refractory Peripheral T-Cell Lymphoma (PTCL); assay: Phase 2 clinical study of tipifarnib in PTCL (NCT02464228): objective response by KIR mutation status, PTCL-NOS and AITL patients together; type: in vivo, human
Description: (§1) This example describes an ongoing Phase 2 clinical study of tipifarnib with the primary objective being to assess the antitumor activity in terms of Overall Response Rate (ORR) of tipifarnib in approximately 18-30 eligible subjects eligible subjects with Peripheral T-Cell Lymphoma (PTCL) (ClinicalTRials.gov identifier: NCT02464228).
(§2) Subjects receive tipifarnib administered at a starting dose of 300 mg, orally with food, twice a day (bid) on Days 1-21 in 28 day cycles (i.e. 3 weeks on/1 week off). Stepwise 100 mg dose reductions to control treatment-related, treatment-emergent toxicities were also allowed. Subjects who received tipifarnib bid on days 1-7 and days 15-21 in 28 day cycles during the conduct of earlier versions of this protocol were permitted to remain on that dose regimen at the discretion of the investigator. Alternatively, the subject was permitted to transition to receive a dose of 300 mg, orally with food, bid on days 1-21 of 28 day treatment cycles beginning on Day 1 of their next cycle. In the absence of unmanageable toxicities, subjects may continue to receive tipifarnib treatment for up to 12 months in the absence of disease progression and unmanageable toxicity. Treatment was permitted to continue beyond 12 months upon agreement of the Investigator and Sponsor.
(§3) Tumor assessments are performed at screening, at the Day 22 visit (±5 days) performed during Cycles 2, 4, 6 and once every approximately 12 weeks (cycles 9, 12, 15, etc.) thereafter, until disease progression.
(§4) Determination of objective tumor response is performed based on the Lugano Classification (Cheson 2014, Appendix II: The Lugano Classification) and/or measurable cutaneous disease according to the modified Severity Weighted Assessment Tool (mSWAT, Olsen 2011, Appendix III: Modified Severity Weighted Assessment Tool).
(§5) Primary outcome measures: objective response rate (ORR) following treatment with tipfarnib. [Time Frame: 2 years]. Response assessments according to IWC and/or mSWAT.
(§6) This Phase II study investigates the antitumor activity in terms of ORR of tipifarnib in approximately 18-30 eligible subjects with relapsed or refractory PTCL. The first 18 subjects were permitted to have the following PTCL sub-types: PTCL, not otherwise specified (PTCL-NOS), angioimmunoblastic T-cell lymphoma (AITL), ALK-positive and -negative anaplastic large cell lymphoma (ALCL), hepatosplenic T-cell lymphoma, enteropathy-associate T-cell lymphoma (EATL), extranodal natural killer (NK) T-cell lymphoma, nasal type and subcutaneous panniculitis-like T-cell lymphoma. The AITL expansion cohort (N=12) enrolls only subjects with AITL. Only consented subjects who meet all eligibility criteria were enrolled in the study. Eligible subjects received tipifarnib administered at a starting dose of 300 mg, orally with food, twice a day (bid) on Days 1-21 in 28 day cycles (i.e. 3 weeks on/1 week off). Stepwise 100 mg dose reductions to control treatment-related, treatment-emergent toxicities were also allowed. Subjects who received tipifarnib bid on days 1-7 and days 15-21 in 28 day cycles during the conduct of earlier versions of this protocol were permitted to remain on that dose regimen at the discretion of the investigator. Alternatively, the subject was permitted to transition to receive a dose of 300 mg, orally with food, bid on days 1-21 of 28 day treatment cycles beginning on Day 1 of their next cycle. In the absence of unmanageable toxicities, subjects may continue to receive tipifarnib treatment for up to 12 months in the absence of disease progression and unmanageable toxicity. Treatment was permitted to continue beyond 12 months upon agreement of the Investigator and Sponsor.
(§7) A two-stage study design was used for the first 18 subjects in order to minimize the number of study subjects treated if tipifarnib were considered not sufficiently efficacious to grant further development in this subject population. […]

[3] = test system: angioimmunoblastic T-cell lymphoma (AITL); assay: Phase 2 clinical study of tipifarnib in PTCL: objective response by KIR mutation status, AITL patients; type: in vivo, human
Description: as §1, §2, §3, §4, §5, §6, §7

[4] = test system: PTCL, not otherwise specified (PTCL-NOS); assay: Phase 2 clinical study of tipifarnib in PTCL: objective response by KIR mutation status, PTCL-NOS patients; type: in vivo, human; conditions: FIG. 6, PTCL-NOS patients (N=9) with Q386E mutant of KIR3DL2
Description: as §1, §2, §3, §4
Primary outcome measures: objective response rate (ORR) following treatment with tipfarnib. [Time Frame: 2 years]. Response assessments according to IWC and/or mSWAT. […]

[5] = test system: unselected tumor populations (AML, MDS/CMML, urothelial cancer, breast cancer, PTCL/CTCL); conditions: single agent therapy, in man; cited from earlier work
[6] = test system: Ras-dependent and -independent malignant tumors; conditions: cited from earlier work
[7] = FIG. 6, 14 patients with Q386E mutant of KIR3DL2 (PTCL-NOS N=9, AITL N=5)
[8] = FIG. 6, patients (N=13) with wild type (wt) KIR3DL2 at position 386
[9] = AITL, KIR3DL2 C336R/Q386E mutant, N=8
[10] = FIG. 1, 9 AITL patients, carriers of D184N mutant of KIR2DL1
[11] = FIG. 2, 9 AITL patients, carriers of E295D mutant of KIR2DL3
[12] = FIG. 2, 9 AITL patients, carriers of R162T mutant of KIR2DL3
[13] = FIG. 3, 9 AITL patients, carriers of Q149K, Q149R, and I154M mutants of KIR2DL4
[14] = FIG. 5, 9 AITL patients, carriers of C336R and Q386E mutants of KIR3DL2
[15] = FIG. 6, AITL patients (N=5) with Q386E mutant of KIR3DL2
[16] = FIG. 7, subset of 10 AITL patients, carriers of C336R and Q386E mutants of KIR3DL2

SMILES: CC[C@H](C)[C@@H](CO[C@@H](Cc1ccccc1)C(=O)N[C@@H](CCS(C)(=O)=O)C(=O)O)NC[C@@H](N)CS [L-739749, 2(S)-[2(S)-[2(R)-amino-3-mercapto]propylamino-3(S)-methyl]-pentyloxy-3-phenylpropionyl-methionine sulfone]
- system toxicity ([1]; mouse, in vivo): without system toxicity
- antitumor activity ([1]; nude mice): potent antitumor activity

SMILES: Cn1cncc1[C@@](N)(c1ccc(Cl)cc1)c1ccc2c(c1)c(-c1cccc(Cl)c1)cc(=O)n2C [tipifarnib, (B)-6-[amino(4-chlorophenyl)(1-methyl-1H-imidazol-5-yl)methyl]-4-(3-chlorophenyl)-1-methyl-2(1H)-quinolinone]
- ORR [2, 7]: 36%
- objective responses: number of CRs [2, 7]: 3
- objective responses: number of PDs [2, 7]: 8
- objective responses: number of PRs [2, 7]: 2
- objective responses: number of SD [2, 7]: 1
- ORR [2, 8]: 8%
- objective responses: number of PD [2, 8]: 9
- objective responses: number of PR [2, 8]: 1
- objective responses: number of SD [2, 8]: 3
- Clinical Benefit Rate (CR + PR + SD), patients/N ([3]; AITL, KIR3DL2 C336R/Q386E mutant): 8/8
- Clinical Benefit Rate (CR + PR + SD) [3, 9]: 100%
- Overall Best Response: Complete Response (CR), number of patients [3, 9]: 4
- Overall Best Response: Partial Response (PR), number of patients [3, 9]: 2
- Overall Best Response: Stable Disease (SD), number of patients [3, 9]: 2
- Overall Response Rate (CR + PR) [3, 9]: 75%
- Clinical Benefit Rate (CR + PR + SD), patients/N ([3]; AITL, KIR3DL2 wild type): 2/7
- Clinical Benefit Rate (CR + PR + SD) ([3]; AITL, KIR3DL2 wild type, N=7): 29%
- Overall Best Response: Partial Response (PR), number of patients ([3]; AITL, KIR3DL2 wild type, N=7): 2
- Overall Best Response: Progressive Disease (PD), number of patients ([3]; AITL, KIR3DL2 wild type, N=7): 5
- Overall Response Rate (CR + PR) ([3]; AITL, KIR3DL2 wild type, N=7): 29%
- objective responses: number of complete responses (CR) [3, 10]: 2
- objective responses: number of partial responses (PR) [3, 10]: 1
- objective responses: number of complete responses (CR) ([3]; FIG. 1, 9 AITL patients, carriers of F202L mutant of KIR2DL1): 2
- objective responses: number of complete responses (CR) ([3]; FIG. 1, 9 AITL patients, carriers of G179R mutant of KIR2DL1): 1
- objective responses: number of partial responses (PR) ([3]; FIG. 1, 9 AITL patients, carriers of N178D mutant of KIR2DL1): 1
- objective responses: number of complete responses (CR) ([3]; FIG. 1, 9 AITL patients, carriers of R197T mutant of KIR2DL1): 2
- objective responses: number of complete responses (CR) [3, 11]: 1
- objective responses: number of partial responses (PR) [3, 11]: 1
- objective responses: number of complete responses (CR) [3, 12]: 2
- objective responses: number of partial responses (PR) [3, 12]: 1
- objective responses: number of complete responses (CR) [3, 13]: 2
- objective responses: number of partial responses (PR) [3, 13]: 2
- objective responses: number of complete responses (CR) [3, 14]: 2
- objective responses: number of partial responses (PR) [3, 14]: 2
- ORR [3, 15]: 80%
- objective responses: number of complete responses (CR) [3, 15]: 2
- objective responses: number of partial responses (PR) [3, 15]: 2
- objective responses: number of complete responses (CR) [3, 16]: 4
- objective responses: number of partial responses (PR) [3, 16]: 2
- ORR [4]: 11%
- objective responses: number of CR [4]: 1
- objective responses: number of progressive disease (PD) [4]: 8
- safety and tolerability [5]: manageable safety profile; also recorded: reasonably well tolerated in man

SMILES: NC(=O)N1CCC(CC(=O)N2CCC([C@H]3c4ncc(Br)cc4CCc4cc(Cl)cc(Br)c43)CC2)CC1 [lonafarnib, (+)-(R)-4-[2-[4-(3,10-dibromo-8-chloro-5,6-dihydro-11H-benzo[5,6]cyclohepta[1,2-b]pyridin-11-yl)piperidin-1-yl]-2-oxoethyl]piperidine-1-carboxamide]
- activity in malignant tumors [6]: active
